The target of one experiment is T1, YAP-TEAD interaction (full length human TEAD1-Gal4 fusion, full length YAP mutant S127A, S397A) (UniProt P04386+P28347).
T1 construct: The TEAD1 construct was prepared by cloning the full length human TEAD1 cDNA; expressed in transfected cells; host or cells: HEK293 GripTite 293 MSR (Invitrogen R795-07), transiently transfected with pSG5_CMV plasmids
T1 sequence (P04386+P28347 fused, stated change not applied): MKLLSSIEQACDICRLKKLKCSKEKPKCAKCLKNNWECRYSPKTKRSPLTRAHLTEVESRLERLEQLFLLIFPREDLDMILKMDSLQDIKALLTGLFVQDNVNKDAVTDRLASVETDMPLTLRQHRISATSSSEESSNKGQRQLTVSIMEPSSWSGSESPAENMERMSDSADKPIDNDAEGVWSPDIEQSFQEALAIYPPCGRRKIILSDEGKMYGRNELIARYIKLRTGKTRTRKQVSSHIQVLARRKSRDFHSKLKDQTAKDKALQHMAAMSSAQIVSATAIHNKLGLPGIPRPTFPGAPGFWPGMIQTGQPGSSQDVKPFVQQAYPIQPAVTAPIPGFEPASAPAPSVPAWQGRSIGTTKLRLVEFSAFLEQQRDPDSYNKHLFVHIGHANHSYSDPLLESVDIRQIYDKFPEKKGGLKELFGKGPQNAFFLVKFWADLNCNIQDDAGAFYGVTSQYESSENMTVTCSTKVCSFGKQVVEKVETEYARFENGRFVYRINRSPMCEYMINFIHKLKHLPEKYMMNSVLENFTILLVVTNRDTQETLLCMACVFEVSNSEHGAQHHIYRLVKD
Description: Cell-based TEAD-GAL4 transactivation assay (luciferase reporter, HEK293). Particulars: HEK293 cells, compounds 0.1 μM to 30 μM, 24 h, concentration that inhibited the luciferase activity by 50%. The protocol:
To identify inhibitors of YAP-TEAD interaction, a transient transactivation assays was carried out into HEK293 cell line (HEK293 GripTite™ 293 MSR (Invitrogen R795-07)) using plasmids containing the full length TEAD1 sequences, the full length YAP mutant (S127A, S397A) and a luciferase gene reporter. All expression constructs were performed into pSG5 backbone plasmid in which the SV40 promoter was replaced by the CMV promoter. The TEAD1 construct was prepared by cloning the full length human TEAD1 cDNA in fusion with the Gal4 DNA Binding Domain (AA 1-148) into pSG5_CMV to create the TEAD1(FL)_hum_pSG5Gal4_CMV. The full length YAP mutant (S127A, S397A) was also cloned into pSG_5 CMV to create the YAP(FL)_hum_pSG5_[…]. The reporter plasmid GAL4(5×RE)_[…]_pGL3-Basic contains 5 copies of the GAL4 responsive element (5′-TCGGAGGACAGTACTCC-3′) upstream of the thymidine kinase (TK) promoter (−105/+56) inserted in a pGL3-Basic vector. To evaluate the selectivity of our compounds in blocking the YAP-TEAD interaction, a counter-screening protein-protein interaction transactivation assays was also established. Briefly, two other expression plasmids, the pBD-P53 which express the P53 (AA 72-390) in fusion with Gal4 and the pAD-SV40T which express the SV40 large T antigen (AA 84-708,AgT), were created. HEK293 cells were seeded at 5×10^4 cells/well in 96 well plates (assay plates) in DMEM medium containing 4.5 g/L D-glucose, 10% high inactivated (HI) fetal bovine serum 1% Glutamax, 1% non-essential amino acid and 1% sodium pyruvate and 0.5% penicillin/streptomycin 37° C. in a humidified atmosphere of 8% CO2. After 24 h, transfections are performed using Jet-PEI as transfectant (101B-010 Polyplus Transfection), according to the instructions of the manufacturer (N/P=10) and a ratio YAP/TEAD=10 (per well: 50 ng of YAP(FL), 5 ng of TEAD(FL) and 50 ng of reporter plasmid). Six hours after cell transfection, the plates (‘assay plate’) were washed with 100 μl PBS per well and cell were treated with compounds in semi-log from 0.1 μM to 30 μM or DMSO 0.5% as control in DMEM 4.5 g/L D-Glucose without phenol red, 0.3% BSA, 1% glutamax, 1% NEAA, 1% sodium pyruvate. Twenty-four hours later, the luciferase activity was determined after addition of 100 μl of Steady Glo™ luciferase assay system (Promega E2550) according to the manufacturer's directions. Luciferase activity in cell extracts is measured by reading luminescence using the Envision device.
The cellular response was determined by fitting the concentration response curves using a 3-parameter curve fit equation and determining the concentration that inhibited the luciferase activity by 50%.
For orientation: A reporter such as luciferase makes a cellular process visible.
Regarding `COc1cc(/C=N/N(C)C2=NS(=O)(=O)c3ccc([N+](=O)[O-])cc32)ccc1F` [Ex 47, N-[(E)-(4-fluoro-3-methoxy-phenyl)methyleneamino]-N-methyl-5-nitro-1,1-dioxo-1,2-benzothiazol-3-amine], the IC50 (commonly the concentration that inhibits the measured activity by half) amounted to 3.4 µM.
Take `COc1cc(/C=N/N(C)C2=NS(=O)(=O)c3cc(B4OCC(C)(C)CO4)ccc32)ccc1F` [Ex 59, 6-(5,5-dimethyl-1,3,2-dioxaborinan-2-yl)-N-[(E)-(4-fluoro-3-methoxy-phenyl)methyleneamino]-N-methyl-1,1-dioxo-1,2-benzothiazol-3-amine]: the midpoint of inhibition, the IC50, lay at 3.55 µM.
In turn, `CN(/N=C/c1ccc2[nH]c(=O)n(C3CC3)c2c1)C1=NS(=O)(=O)c2ccccc21` [Ex 27, 3-cyclopropyl-5-[(E)-[(1,1-dioxo-1,2-benzothiazol-3-yl)-methyl-hydrazono]methyl]-1H-benzimidazol-2-one] gave a half-inhibitory concentration (IC50) of 2.92 µM. The IC50 values of the last two molecules are within 1.5-fold of each other.
Still for that read-out and setting: for `COc1cc(/C=N/N(CC(C)C)C2=NS(=O)(=O)c3ccccc32)ccc1F` [Ex 40, N-[(E)-(4-fluoro-3-methoxy-phenyl)methyleneamino]-N-isobutyl-1,1-dioxo-1,2-benzothiazol-3-amine] the value was 5.33 µM; for `CCn1c(=O)[nH]c2ccc(/C=N/N(CC(C)C)C3=NS(=O)(=O)c4cc(B(O)O)ccc43)cc21` [Ex 84, [3-[[(E)-(3-ethyl-2-oxo-1H-benzimidazol-5-yl)methyleneamino]-isobutyl-amino]-1,1-dioxo-1,2-benzothiazol-6-yl]boronic acid], 1.67 µM.
`CCC1(CC)C(=O)Nc2ccc(/C=N/N(CC(C)C)C3=NS(=O)(=O)c4cc(O)ccc43)cc21` [Ex 96, 3,3-diethyl-5-[(E)-[(6-hydroxy-1,1-dioxo-1,2-benzothiazol-3-yl)-isobutyl-hydrazono]methyl]indolin-2-one] displayed an IC50 of 10.4 µM.
On the same count and under the same terms, then `COc1cc(C2=NN(C3=NS(=O)(=O)c4cc(B(O)O)ccc43)C(C)CC2)ccc1F` (centres unmarked) [Ex 109, [3-[6-(4-fluoro-3-methoxy-phenyl)-3-methyl-4,5-dihydro-3H-pyridazin-2-yl]-1,1-dioxo-1,2-benzothiazol-6-yl]boronic acid], with 0.7 µM; and `COc1cc(/C=N/N(CC(C)C)C2=NS(=O)(=O)c3cc(OCB4OC(=O)CN(C)CC(=O)O4)ccc32)ccc1F` [Ex 106, 2-[[3-[[(E)-(4-fluoro-3-methoxy-phenyl)methyleneamino]-isobutyl-amino]-1,1-dioxo-1,2-benzothiazol-6-yl]oxymethyl]-6-methyl-1,3,6,2-dioxaza-borocane-4,8-dione], with 0.94 µM.
Still for that read-out and setting: for `COc1cc(/C=N/N(CC2CCC2)C2=NS(=O)(=O)c3cc(B(O)O)ccc32)ccc1F` [Ex 80, [3-[cyclobutylmethyl-[(E)-(4-fluoro-3-methoxy-phenyl)methyleneamino]amino]-1,1-dioxo-1,2-benzothiazol-6-yl]boronic acid] the value was 1.07 µM.
`COc1cc(/C=N/N(C)C2=NS(=O)(=O)c3cc(N)ccc32)ccc1F` [Ex 49, N3-[(E)-(4-fluoro-3-methoxy-phenyl)methyleneamino]-N3-methyl-1,1-dioxo-1,2-benzothiazole-3,6-diamine]: the midpoint of inhibition, the IC50, lay at 3.11 µM.
With `CN(/N=C/c1cnc(N2CCCC2)s1)C1=NS(=O)(=O)c2ccccc21` [Ex 6, N-methyl-1,1-dioxo-N-[(E)-(2-pyrrolidin-1-ylthiazol-5-yl)methyleneamino]-1,2-benzothiazol-3-amine], 1.07 µM corresponded to half-maximal inhibition (IC50).
`COc1cc(/C=N/N(CCc2ccccn2)C2=NS(=O)(=O)c3ccccc32)ccc1F` [Ex 9, N-[(E)-(4-fluoro-3-methoxy-phenyl)methyleneamino]-1,1-dioxo-N-[2-(2-pyridyl)ethyl]-1,2-benzothiazol-3-amine] came in with an IC50 of 3.94 µM.
The same measure, in the same setting: then `CN(/N=C/c1cccc(N(C)C)c1)C1=NS(=O)(=O)c2ccccc21` [Ex 4, N-[(E)-[3-(dimethylamino)phenyl]methyleneamino]-N-methyl-1,1-dioxo-1,2-benzothiazol-3-amine], with 11.9 µM; and `COc1cc(/C=N/N(CC(C)C)C2=NS(=O)(=O)c3cc(B(O)O)ccc32)ccc1F` [Ex 63, [3-[[(E)-(4-fluoro-3-methoxy-phenyl)methyleneamino]-isobutyl-amino]-1,1-dioxo-1,2-benzothiazol-6-yl]boronic acid], with 1.08 µM.
As for `COc1cc(/C=N/N(CC(C)C)C2=NS(=O)(=O)c3cc(B4OC(=O)CN(C)CC(=O)O4)ccc32)ccc1F` [Ex 69, 2-[3-[[(E)-(4-fluoro-3-methoxy-phenyl)methyleneamino]-isobutyl-amino]-1,1-dioxo-1,2-benzothiazol-6-yl]-6-methyl-1,3,6,2-dioxazaborocane-4,8-dione], the IC50 was 1.04 µM.
The molecule `CN(/N=C/c1ccc2c(c1)n(C1CCC1)c(=O)n2COC(=O)C(C)(C)C)C1=NS(=O)(=O)c2ccccc21` [Ex 113, [3-cyclobutyl-5-[(E)-[(1,1-dioxo-1,2-benzothiazol-3-yl)-methyl-hydrazono]methyl]-2-oxo-benzimidazol-1-yl]methyl 2,2-dimethylpropanoate] showed an IC50 of 4 µM.
On the same count and under the same terms, for `COc1cc(C2=NN(C3=NS(=O)(=O)c4ccccc43)CC(C)(C)C2)ccc1F` [Ex 110, 3-[6-(4-fluoro-3-methoxy-phenyl)-4,4-dimethyl-3,5-dihydropyridazin-2-yl]-1,2-benzothiazole 1,1-dioxide] the value was 3.23 µM; for `CCOc1cc(/C=N/N(C)C2=NS(=O)(=O)c3ccccc32)ccc1F` [Ex 11, N-[(E)-(3-ethoxy-4-fluoro-phenyl)methyleneamino]-N-methyl-1,1-dioxo-1,2-benzothiazol-3-amine], 2.85 µM; for `CCC1(CC)C(=O)Nc2ccc(/C=N/N(CC(C)C)C3=NS(=O)(=O)c4cc(OC)ccc43)cc21` [Ex 98, 3,3-diethyl-5-[(E)-[isobutyl-(6-methoxy-1,1-dioxo-1,2-benzothiazol-3-yl) hydrazono]methyl]indolin-2-one], 3.92 µM.
On to `COc1cc(/C=N/N(C2=NS(=O)(=O)c3cc(B(O)O)ccc32)C(C)C)ccc1F` [Ex 102, [3-[[(E)-(4-fluoro-3-methoxy-phenyl)methyleneamino]-isopropyl-amino]-1,1-dioxo-1,2-benzothiazol-6-yl]boronic acid], for which the IC50 is 3.01 µM.
Same read-out and setting: for `CN(/N=C/c1cccc(OCCO)c1)C1=NS(=O)(=O)c2ccccc21` [Ex 2, 2-[3-[(E)-[(1,1-dioxo-1,2-benzothiazol-3-yl)-methyl-hydrazono]methyl]phenoxy]ethanol] the value was 1.11 µM; for `CNC(=O)COc1ccc2c(c1)C(N(CC(C)C)/N=C/c1ccc(F)c(OC)c1)=NS2(=O)=O` [Ex 105, 2-[[3-[[(E)-(4-fluoro-3-methoxy-phenyl)methyleneamino]-isobutyl-amino]-1,1-dioxo-1,2-benzothiazol-5-yl]oxy]-N-methyl-acetamide], 4.94 µM.
Still for that read-out and setting: then “3,3-diethyl-5-[(E)-[isobutyl-(5-methoxy-1,1-dioxo-1,2-benzothiazol-3-yl)hydrazono]methyl]indolin-2-one [Ex 101]”, with 5.29 µM; and `CCCC(=O)OCn1c(=O)n(C2CCC2)c2cc(/C=N/N(C)C3=NS(=O)(=O)c4ccccc43)ccc21` [Ex 114, [3-cyclobutyl-5-[(E)-[(1,1-dioxo-1,2-benzothiazol-3-yl)-methyl-hydrazono]methyl]-2-oxo-benzimidazol-1-yl]methyl butanoate], with 4.95 µM.

The same experiment, now with this note: HEK293 cells, compounds 0.1 μM to 30 μM, 24 h, luciferase activity.
For the molecule `COc1cc(/C=N/N(CC(C)C)C2=NS(=O)(=O)c3cc(OCC(N)=O)ccc32)ccc1F` [Ex 104, 2-[[3-[[(E)-(4-fluoro-3-methoxy-phenyl)methyleneamino]-isobutyl. amino]-1,1-dioxo-1,2-benzothiazol-6-yl]oxy]acetamide], the “Max Act. (%), TEAD-GAL4 Transactivation activity” value is 72%.
Still for that read-out and setting: then “3,3-diethyl-5-[(E)-[isobutyl-(5-methoxy-1,1-dioxo-1,2-benzothiazol-3-yl)hydrazono]methyl]indolin-2-one [Ex 101]”, with 90%.

Values taken from US20200115353A1, “NEW COMPOUNDS INHIBITORS OF THE YAP/TAZ-TEAD INTERACTION AND THEIR USE IN THE TREATMENT OF MALIGNANT MESOTHELIOMA” (INVENTIVA, priority 2017, published 2020).
